The values that follow come from BindingDB's records for doi:10.1016/j.bmcl.2013.08.079 (Saint John'S University, 2013).

The target in the test is Low molecular weight phosphotyrosine protein phosphatase (Homo sapiens) (UniProt P24666). The test is described as follows: Noncompetitive inhibition of human GST-tagged LMW-PTP-B expressed in Escherichia coli JM 109 cells using p-nitrophenyl phosphate as substrate after 15 mins by microplate reader analysis.
Sequence of Low molecular weight phosphotyrosine protein phosphatase (Homo sapiens) (P24666 whole entry, looked up): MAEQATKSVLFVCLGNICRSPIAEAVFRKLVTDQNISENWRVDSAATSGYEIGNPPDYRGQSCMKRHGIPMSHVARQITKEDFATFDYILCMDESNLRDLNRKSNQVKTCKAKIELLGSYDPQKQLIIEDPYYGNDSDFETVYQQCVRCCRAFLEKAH

For the compound `O=C(O)c1nc2nc(Cl)c(Cl)nc2[nH]1`, the inhibitory constant (Ki) was determined as 26 µM.

`CC(=O)Nc1c(C)cc(OCC(=O)O)cc1C` displayed a Ki of 73.2 µM.
